In patent US6479487B1, “6, 9-disubstituted 2-[trans-(4-aminocyclohexyl)amino] purines” (Aventis Pharmaceuticals Inc., priority 1998, dated 2002):
Several values for one entry are separate records, joined by “and”; a condition that tells them apart may be missing. Equal entries are not always repeated. Structures can show the parent of a compound that is named as a salt. Where two headings read alike, the source gives them in different places.

Key:
[1] = test system: HT-29; assay: In vitro tumor cell proliferation, HT-29; type: cell-based, human; settings: many values given with an undefined *, read-out: In vitro Tumor Cell Proliferation (IC50, μM) Colon HT-29
Outline: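 Growth was quantified either with CyQUANT, plates frozen at −80° C after 3 days of drug, or by sulforhodamine B staining of TCA-fixed cells after 3 days of drug plus 4 days with fresh drug. Trypan blue-excluding HT-29 cells were plated overnight at 37° C before dosing.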

[2] = test system: MCF-7; assay: In vitro tumor cell proliferation, MCF-7; type: cell-based, human; settings: sulforhodamine B or CyQUANT assay, read-out: In vitro Tumor Cell Proliferation (IC50, μM) Breast MCF-7
Protocol: (§1) The proliferation of tumor cells was measured using a sulforhodamine B assay as described in Skehan, P., et al., J. Natl. Cancer Inst. […] Tumor cells were harvested with trypsin-EDTA, cells that excluded trypan blue were counted, added to 96-well plates and incubated overnight at 37° C. Drug was added to the wells following dilution in culture medium. Three days later, the medium was removed and replenished with medium containing fresh drug and incubated an additional 4 days. The cells were then fixed with 0.1 ml 10% trichloroacetic acid for 60 min at 4° C. The plates were rinsed five times with tap water, air-dried and stained for 30 min with 0.4% sulforhodamine B in 1% acetic acid and air-dried.
(§2) Alternatively, the CyQUANT cell proliferation assay was used to quantitate cell proliferation.
(§3) Alternatively, the CyQUANT cell proliferation assay was used to quantify tumor cell proliferation. Tumor cells were harvested with trypsin-EDTA, cells that excluded trypan blue were counted, added to 96-well plates and incubated overnight at 37° C. Drug was added to the wells following dilution in culture medium. Three days later the medium was removed and the plates frozen at −80° C. for at least 30 minutes.
MCF7 is a human breast adenocarcinoma, hormone-dependent (HTB 22);

[3] = test system: HCT-15; assay: In vitro tumor cell proliferation, HCT-15; type: cell-based, human; settings: read-out: In vitro Tumor Cell Proliferation (IC50, μM) Colon HCT-15
Protocol: as §1, §2, §3

[4] = molecular target: T1, cdk2/cyclin E (Homo sapiens, UniProt P24941); assay: Cyclin-Dependent Kinase 2 Assay (cdk2/cyclin E, GST-Rb substrate); type: biochemical; settings: recombinant cdk2/cyclin E, 10 μM ATP, 30 min at 30° C., several values in a cell = separate determinations, read-out: CDK-2 Inhibition IC50
T1 construct: made in house; host or cells: insect cells (baculovirus co-infection)
Protocol: Substrate: GST-Rb as described above for cdk4/cyclin D1
Assay conditions for cdk2/cyclin E were identical to those for cdk4/cyclin D1 including the substrate. The concentration of recombinant cdk2/cyclin E in the assay was 0.1 μg per 100 μl assay. Incubation was for 30 min at 30° C.

[5] = molecular target: T2, cdk4/cyclin D1 (Homo sapiens, UniProt P11802); assay: Cyclin-dependent Kinase 4 Assay (cdk4/cyclin D1, GST-Rb substrate); type: biochemical; settings: cdk4/cyclin D1 insect cell lysate, 10 μM ATP, 30 min at 37° C., several values = separate determinations, read-out: CDK4 Inhibition IC50
T2 construct: made in house; host or cells: Sf9 insect cells (Bac-to-Bac baculovirus, pFastBac)
T2 sequence (P11802 whole entry): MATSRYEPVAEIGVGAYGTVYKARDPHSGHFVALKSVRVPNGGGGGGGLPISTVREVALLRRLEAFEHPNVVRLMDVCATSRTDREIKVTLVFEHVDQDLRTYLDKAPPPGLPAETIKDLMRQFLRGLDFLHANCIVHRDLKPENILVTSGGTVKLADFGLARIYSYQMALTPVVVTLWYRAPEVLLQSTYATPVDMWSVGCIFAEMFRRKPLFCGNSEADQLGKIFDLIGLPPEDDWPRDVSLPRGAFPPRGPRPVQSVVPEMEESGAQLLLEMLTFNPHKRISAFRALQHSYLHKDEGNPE
T2 sequence (P24385 whole entry partner): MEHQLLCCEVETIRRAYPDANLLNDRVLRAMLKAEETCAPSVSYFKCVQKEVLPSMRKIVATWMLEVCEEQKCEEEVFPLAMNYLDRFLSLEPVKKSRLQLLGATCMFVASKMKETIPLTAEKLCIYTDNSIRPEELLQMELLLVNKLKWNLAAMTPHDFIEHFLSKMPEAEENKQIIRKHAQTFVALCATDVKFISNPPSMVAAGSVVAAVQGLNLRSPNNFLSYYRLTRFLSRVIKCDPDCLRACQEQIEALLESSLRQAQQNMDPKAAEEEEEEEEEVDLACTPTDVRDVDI
Outline: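 IC50 against cdk4 measured by scintillation counting of bead-bound GST-Rb (0.5 μg) after filtration and four TNEN washes. Reaction was 30 min at 37 °C in HEPES pH 7.5 buffer with 10 mM MgCl2 and 1 mM EGTA. Enzyme source was 0.1 μg Sf9 lysate coinfected with cdk4 and cyclin D1.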

[6] = test system: DU145; assay: In vitro tumor cell proliferation, DU145; type: cell-based, human; settings: many values given with an undefined *, read-out: In vitro Tumor Cell Proliferation (IC50, μM) Prostate DU145
Outline: (§4)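 Tumor cells were seeded overnight at 37° C, then exposed to drug diluted in culture medium for 3 days, refed with fresh drug-containing medium and kept 4 more days. Cells were fixed with 10% trichloroacetic acid and stained with 0.4% sulforhodamine B; alternatively, CyQUANT read proliferation after 3 days' drug exposure.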

[7] = test system: MDA-MB-231; assay: In vitro tumor cell proliferation, MDA-MB-231; type: cell-based, human; settings: sulforhodamine B or CyQUANT assay, many values given with an undefined *, read-out: In vitro Tumor Cell Proliferation (IC50, μM) Breast MDA-MB-231
Outline: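 Proliferation quantified by SRB staining of TCA-fixed cells after 3 days of drug plus 4 days with replenished drug, following overnight attachment at 37 °C.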

[8] = test system: DMS-114; assay: In vitro tumor cell proliferation, DMS-114; type: cell-based, human; settings: many values given with an undefined *, read-out: In vitro Tumor Cell Proliferation (IC50, μM) Lung DMS-114
Outline: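 Human small cell lung carcinoma DMS-114 cells plated overnight, then drug-treated for 3 days, medium and drug renewed, and incubated 4 more days. Growth read by sulforhodamine B staining after TCA fixation; alternatively by CyQUANT after 3 days' drug exposure and freezing at −80 °C.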

[9] = test system: PC-3; assay: In vitro tumor cell proliferation, PC-3; type: cell-based, human; settings: many values given with an undefined *, read-out: In vitro Tumor Cell Proliferation (IC50, μM) Prostate PC-3
Outline: as §4

[10] = test system: A549; assay: In vitro tumor cell proliferation, A549; type: cell-based, human; settings: many values given with an undefined *, read-out: In vitro Tumor Cell Proliferation (IC50, μM) Lung A549
Outline: as §4

[11] = Homo sapiens, MDA-MB-231, MDA-MB-231

Row | IC50 ([1]; Homo sapiens, HT-29, HT-29) [µM] | IC50 ([2]; Homo sapiens, MCF7, MCF-7) [µM] | IC50 ([3]; Homo sapiens, HCT-15, HCT-15) [µM] | IC50 [4] | IC50 [5] | IC50 ([6]; DU145, dihydrochloride) [µM] | IC50 ([6]; Homo sapiens, DU-145, DU145) [µM] | IC50 ([1]; HT-29, dihydrochloride) [µM] | IC50 ([2]; MCF-7, dihydrochloride) [µM] | IC50 [7, 11] [µM] | IC50 ([7]; MDA-MB-231, dihydrochloride) [µM] | IC50 ([8]; DMS-114, dihydrochloride) [µM] | IC50 ([8]; Homo sapiens, DMS-114, DMS-114) [µM] | IC50 ([9]; Homo sapiens, PC-3, PC-3) [µM] | IC50 ([9]; PC-3, dihydrochloride) [µM] | IC50 ([3]; HCT-15, dihydrochloride) [µM] | IC50 ([10]; A549, dihydrochloride) [µM] | IC50 ([10]; Homo sapiens, A549, A549) [µM] | Structure (SMILES) | further results
1 | 2.1 | 2.9 | 5.7 | 490 nM and 140 nM | 9400 nM and 7700 nM | – | – | – | – | – | – | – | – | – | – | – | – | – | N[C@H]1CC[C@H](Nc2nc(NCc3cccc(I)c3)c3ncn(C4C=CCC4)c3n2)CC1 (relative stereo) [Example 35, 2-[Trans-(4-aminocyclohexyl)amino]-6-[(3-iodobenzyl)amino]-9-(2-cyclopentenyl)purine hydrochloride] | IC50 ([1]; HT-29, hydrochloride): 1.9 µM; IC50 ([2]; MCF-7, hydrochloride): 1.9 µM; IC50 ([3]; HCT-15, hydrochloride): 4 µM
2 | 1.5 | 1.2 | 2.4 | 120 nM and 81 nM | 2000 nM and 2700 nM and 1700 nM | 1.5 | 1.4 | 1.6 | 1.6 | 1.4 | 1.5 | 0.86 | 1.1 | 0.96 | 1 | 2.5 | 0.9 | 0.97 | N[C@H]1CC[C@H](Nc2nc(NCc3ccc(C(F)(F)F)cc3)c3ncn(C4CCCC4)c3n2)CC1 [Example 1, 2-[Trans-(4-aminocyclohexyl)amino]-6-[(4-trifluorobenzyl)amino]-9-cyclopentylpurine dihydrochloride] | –
3 | 1.3 | – | 4.5 | 30 nM (2×) and 48 nM and 22 nM | 6600 nM and 3200 nM | 1.2 | 0.88 | 1.4 | – | 0.88 | 1.2 | 0.89 | 0.8 | 0.98 | 0.63 | 3.5 | 1.1 | 0.8 | COc1ccc(CNc2nc(N[C@H]3CC[C@H](N)CC3)nc3c2ncn3C2CCCC2)cc1 [Example 8, 2-[Trans-(4-aminocyclohexyl)amino]-6-[(4-methoxybenzyl)amino]-9-cyclopentylpurine dihydrochloride] | –
4 | 7.3 | – | 16 | 230 nM | 4500 nM and 6200 nM | 6.7 | 3.5 | 8.5 | – | 8.6 | 11 | – | 5.4 | 4.4 | 3.5 | – | 3.5 | 5.6 | COc1ccccc1CNc1nc(N[C@H]2CC[C@H](N)CC2)nc2c1ncn2C1CCCC1 [Example 12, 2-[Trans-(4-aminocyclohexyl)amino]-6-[(2-methoxybenzyl)amino]-9-cyclopentylpurine dihydrochloride] | –
5 | 3.1 | 2 | – | 50 nM | 2900 nM | 1.7 | 0.99 | 3.4 | – | 2.2 | 2.6 | 1.4 | 1 | 1.9 | 1.3 | – | – | 1.7 | COc1cccc(CNc2nc(N[C@H]3CC[C@H](N)CC3)nc3c2ncn3C2CCCC2)c1OC [Example 13, 2-[Trans-(4-aminocyclohexyl)amino]-6-[(2,3-dimethoxybenzyl)amino]-9-cyclopentylpurine dihydrochloride] | –
6 | 6.8 | – | 9.9 | 350 nM | – | 6.9 | 3.6 | – | – | 6.1 | 7.9 | 5.8 | 5.3 | 4 | – | – | 7.5 | 6.8 | COc1ccc(CNc2nc(N[C@H]3CC[C@H](N)CC3)nc3c2ncn3C2CCCC2)c(OC)c1 [Example 17, 2-[Trans-(4-aminocyclohexyl)amino]-6-[(2,4-dimethoxybenzyl)amino]-9-cyclopentylpurine dihydrochloride] | –
7 | 2.6 | – | 4 | 260 nM | 6400 nM and 6900 nM | 1.7 | 0.95 | 3 | – | 4.5 | 4.3 | 0.95 | 0.85 | 1.1 | 1.7 | 3.7 | – | 1.9 | N[C@H]1CC[C@H](Nc2nc(NCc3ccccc3C(F)(F)F)c3ncn(C4CCCC4)c3n2)CC1 [Example 25, 2-[Trans-(4-aminocyclohexyl)amino]-6-[(2-trifluorobenzyl)amino]-9-cyclopentylpurine dihydrochloride] | –
8 | 12 | 5.6 | > 20 | 480 nM | 2200 nM and 2600 nM | 9.1 | 6.4 | – | 11 | 12 | – | 7.7 | 6.1 | 4.8 | 6.4 | – | – | 1.9 | COc1cc(CNc2nc(N[C@H]3CC[C@H](N)CC3)nc3c2ncn3C2CCCC2)cc(OC)c1 [Example 28, 2-[Trans-(4-aminocyclohexyl)amino]-6-[(3 5-dimethoxybenzyl)amino]-9-cyclopentylpurine dihydrochloride] | –
9 | 3.4 | 2.3 | 7.7 | 80 nM | 1200 nM and 800 nM | 4.3 | 2.7 | 6 | 3.5 | 3.4 | 5.8 | 4.5 | 4.2 | 1 | 2 | – | 4.8 | 3.4 | COc1ccc(CNc2nc(N[C@H]3CC[C@H](N)CC3)nc3c2ncn3C2CCCC2)cc1OC [Example 34, 2-[Trans-(4-aminocyclohexyl)amino]-6-[3,4-dimethoxybenzyl)amino]-9-cyclopentylpurine dihydrochloride] | –
